Measurements from patent publication US20100069493A1, “AQUEOUS PHARMACEUTICAL FORMULATION OF 4-[((4-CARBOXYBUTYL)-AMINO)METHYL]BENZOIC ACID” (BAYER HEALTHCARE AG, priority 2006, published 2010).
≈ marks a conversion by molar mass, not a printed value.

Experiments:
Type in all cases: physicochemical
[1] = pKa of the ionizable groups of compound 1
Text: (§1) However, there are limits to increasing the pH due to the use as infusion. Values of pH above pH 9.0 are borderline in relation to physiological tolerability.

[2] = Saturation solubility of compound 1 in various buffer media; details: aqueous buffer, thermodynamic from solid
Text: as §1

[3] = Dilution experiments on 0.05 mg/ml solutions with and without trometamol (Table 2); details: for Appearance of the solution: 0.05 mg/ml solution with trometamol 0.01 molar, pH before dilution 8.74
Method: Dilution experiments on solutions with an active ingredient content of 0.05 mg/ml have shown that these can be diluted in a pH-stable and thus problem-free manner over a wide range only if they are buffered with a sufficient quantity of trometamol.
Without use of trometamol and on use of trometamol in a concentration of only 0.001 M, the pH falls greatly even with slight dilution (1+5). There is a high risk in this case that the active ingredient will precipitate on dilution with other infusion solutions (Table 2 a-c).

[4] = Titration experiments with 0.01 N hydrochloric acid (acid burden, precipitation)
Method: It was possible to show in titration experiments that an acid burden of 0.01 N hydrochloric acid in solutions without trometamol leads to such a large fall in pH even on addition of less than 1 ml to the total content of a 50 ml infusion bottle that the active ingredient precipitates. On addition of 0.001 M trometamol buffer, precipitations are to be observed on addition of about 5 ml of 0.01 N hydrochloric acid. A solution with a trometamol content of 0.01 M is by contrast stable to precipitations on addition of acid up to more than 35 ml of 0.01 N hydrochloric acid.

[5] = Dilution of 0.05 mg/ml compound 1 / 0.01 M trometamol solutions with standard infusion solutions (Table 3); details: trometamol 0.01 M
Method: Solutions comprising compound 1 in a concentration of 0.05 mg/ml and trometamol in a concentration of 0.01 M can be diluted problem-free with standard infusion solutions over a wide range. The dilution experiments shown in Table 3 were carried out concerning this:
All the dilution experiments were carried out in duplicate. […] It emerged that there is a marked decrease in the pH values to the region below 8.0 only with dilutions greater than 1:40. Precipitation of the active ingredient is no longer a worry with such great dilutions, because the solubility limit of compound 1 is no longer reached owing to the large amount of dilution medium.

pKa1 [1]: 4.0
pKa2 [1]: 4.7
pKa3 [1]: 8.3
solubility ([2]; Ammonium chloride buffer solution, actual pH 9.5): 75700 µg/mL (≈ 134000 µM)
solubility ([2]; Citric acid-phosphate buffer, actual pH 7.4): 13.1 µg/mL (≈ 23.2 µM)
solubility ([2]; Citric acid-phosphate buffer, actual pH 8.0): 64.2 µg/mL (≈ 113 µM)
solubility ([2]; Diethanolamine buffer solution, actual pH 10.0): 89800 µg/mL (≈ 159000 µM)
solubility ([2]; HEPES buffer solution, actual pH 7.5): 35.8 µg/mL (≈ 63.3 µM)
solubility ([2]; Phosphate buffer solution (0.2 M), actual pH 7.5): 15.8 µg/mL (≈ 27.9 µM)
solubility ([2]; Phosphate buffer solution (0.3 M), actual pH 7.5): 1.3 µg/mL (≈ 2.3 µM)
solubility ([2]; Phosphate buffer solution, actual pH 6.0): 0.2 µg/mL (≈ 0.354 µM)
solubility ([2]; Phosphate buffer solution, actual pH 7.2): 8.4 µg/mL (≈ 14.8 µM)
solubility ([2]; Phosphate buffer solution, actual pH 7.4): 21.5 µg/mL (≈ 38 µM)
solubility ([2]; Phosphate buffer solution, actual pH 8.0): 3.2 µg/mL (≈ 5.66 µM)
solubility ([2]; Phosphate buffer solution, actual pH 9.0): 683 µg/mL (≈ 1210 µM)
solubility ([2]; Saline-phosphate buffer, actual pH 7.4): 19 µg/mL (≈ 33.6 µM)
solubility ([2]; Sodium citrate buffer solution, actual pH 7.8): 160 µg/mL (≈ 283 µM)
solubility ([2]; Tetrabutylammonium buffer solution, actual pH 7.0): 12.8 µg/mL (≈ 22.6 µM)
pH after dilution ([3]; 0.05 mg/ml solution with trometamol 0.001 molar, mixing ratio 1 + 5, NaCl soln, final volume 251 ml, pH before dilution 8.69): 8.43
pH after dilution ([3]; 0.05 mg/ml solution with trometamol 0.001 molar, mixing ratio 1 + 10, NaCl soln, final volume 275 ml, pH before dilution 8.69): 8.05
pH after dilution ([3]; 0.05 mg/ml solution with trometamol 0.001 molar, mixing ratio 1 + 250, NaCl soln, final volume 300 ml, pH before dilution 8.69): 6.61
Appearance of the solution ([3]; mixing ratio 1 + 5, NaCl soln, final volume 251 ml): clear
Appearance of the solution ([3]; mixing ratio 1 + 10, NaCl soln, final volume 275 ml): clear
Appearance of the solution ([3]; mixing ratio 1 + 250, NaCl soln, final volume 300 ml): clear
pH after dilution ([3]; 0.05 mg/ml solution without trometamol, mixing ratio 1 + 5, NaCl soln, final volume 251 ml, pH before dilution 8.51): 6.40
pH after dilution ([3]; 0.05 mg/ml solution without trometamol, mixing ratio 1 + 10, NaCl soln, final volume 275 ml, pH before dilution 8.51): 6.58
pH after dilution ([3]; 0.05 mg/ml solution without trometamol, mixing ratio 1 + 250, NaCl soln, final volume 300 ml, pH before dilution 8.51): 6.70
Volume of 0.01 N hydrochloric acid at which precipitations are observed ([4]; solution with 0.001 M trometamol buffer, 50 ml infusion bottle): about 5 ml
Volume of 0.01 N hydrochloric acid up to which the solution is stable to precipitations ([4]; solution with trometamol content of 0.01 M, 50 ml infusion bottle): more than 35 ml
Volume of 0.01 N hydrochloric acid at which the active ingredient precipitates ([4]; solution without trometamol, added to total content of a 50 ml infusion bottle): less than 1 ml
Precipitation on dilution ([5]; all dilutions of Table 3, in duplicate): No precipitations occurred
pH after dilution ([5]; mixing ratio 1:2, NaCl soln, final volume 10 ml): 8.67
pH after dilution ([5]; mixing ratio 1:4, NaCl soln, final volume 20 ml): 8.65
pH after dilution ([5]; mixing ratio 1:10, Glucose soln, final volume 50 ml): 8.37
pH after dilution ([5]; mixing ratio 1:10, NaCl soln, final volume 50 ml): 8.57
pH after dilution ([5]; mixing ratio 1:10, Placebo soln, final volume 50 ml): 8.72
pH after dilution ([5]; mixing ratio 1:10, Water, final volume 50 ml): 8.61
pH after dilution ([5]; mixing ratio 1:20, NaCl soln, final volume 100 ml): 8.54
pH after dilution ([5]; mixing ratio 1:40, NaCl soln, final volume 200 ml): 8.40
pH after dilution ([5]; mixing ratio 1:200, NaCl soln, final volume 1000 ml): 7.85
SMILES: O=C(O)CCCCN(CCc1ccccc1OCc1ccc(CCc2ccccc2)cc1)Cc1ccc(C(=O)O)cc1 [compound 1, 4-[((4-Carboxybutyl)-{2-[(4-phenethylbenzyl)oxy]phenethyl}amino)methyl]benzoic acid]
